# Results: US5436273A, “Psychoactive propargylamine derivatives used in the treatment of anxiety, psychotic states or aggression” (Lowchol Scientific, Inc., priority 1993, dated 1995)
# “Also recorded” adds a separate entry of the source. Read-outs that look alike come from different tables or passages of the source.
# Experiments:
# [1] = system: spontaneous motor activity in mice; assay: Inhibition of spontaneous motor activity in mice; type: in vivo, CD #1 mice; details: for ED50: Mus musculus, ip, 0.5 h, i.p., 30 minutes
# Protocol: 4. Inhibition of Spontaneous Motor Activity in Mice
# Female CD #1 mice (20-30 g) are used for this experiment. The effect of the compound to be studied on spontaneous activity was evaluated by an automated […] XYZ system. This system allows the simultaneous quantification of the following parameters:
# number of stereotypic movements;
# number of vertical movements;
# number of clockwise revolutions; and
# number of counterclockwise revolutions.
# (§1) Two animals are studied simultaneously, one treated and one control. After a 2 hour period of acclimatization to the room, a first activity count of 10 minutes duration is perfomed. The compound to be studied is then administered i.p. and the spontaneous activity is reevaluated 30 minutes later over a period of 10 minutes.
# [2] = system: aggressive behavior in combative mice; assay: Inhibition of aggressive behavior in combative mice at various times (correlation with plasma concentration); type: in vivo; details: 10 mg/kg i.p.; for inhibition at 10 mg/kg: Mus musculus, ip
# Protocol: (§2) The mice are placed together, in pairs, for 5 minutes. This pairing is performed 10, 25, 55, 85 and 115 minutes after the administration of compound N^o 3. One minute after each of the 5 minute periods of placing the animals together, three pairs of animals are anesthetized with ether and guillotined in order to determine the concentration of compound N^o 3 in the plasma. The plasma sample is prepared by centrifugation (16,000 G) of 800 μl of blood to which 50 μl of EDTA Na4 (0.1M) is added. The inhibition of aggressive behavior at the different times in which the animals are placed together and the number of pairs evaluated is shown in the following Table: […]
# [3] = system: aggressive behavior of combative mice; assay: Persistence of antiaggressive effect; type: in vivo; details: 10 mg/kg i.p. daily for five days, FIG. 3
# From the text: 12. Persistence of Antiaggressive Effect
# [4] = Vapor pressure at room temperature; type: physicochemical; details: free base
# [5] = Plasma concentration in combative mice as a function of time; type: in vivo; details: 10 mg/kg i.p.
# Protocol: A calibration curve is established using mouse blood plasma. Two samples are used for each concentration. The method used is as follows.
# 200 μl of plasma are taken and denaturated with 400 μl of acetonitrile. 500 μl of the clear liquid is taken.
# A derivative is made with 50 μl of orthophthalaldehyde (0.05M) in a test tube and 25 μl of the solution is injected into a high performance liquid chromatography apparatus after 30 minutes.
# 3-Amino-4-pentyne is used as standard.
# The following equation describes the calibration curve: […]
# The concentration of compound N^o 3 in the plasma is given by the following equation: [formula] B. Evaluation in Vivo
# The pharmacokinetic profile is established in combative mice.
# as §2
# [6] = system: aggressive behavior of combative mice; assay: Duration of antiaggressive effect; type: in vivo; details: single dose 10 mg/kg i.p., FIG. 2
# From the text: 11. Duration of Antiaggressive Effect
# [7] = Effect on body temperature in mice; type: in vivo, CD #1 mice; details: for Temp. Difference from Control: one hour
# Protocol: 9. Effect on Body Temperature in Mice
# Female CD #1 mice (20-30 g) are used. Rectal temperature is recorded before and one hour after s.c. administration of the compound to be studied (N=8/doses×4 doses). The solvent used is sterile water for intravenous injection.
# The results which are reported in Table 9 are expressed in terms of the variation of temperature for different doses. Buspirone was tested on Sprague Dawley rats.
# [8] = in vivo; details: mouse, ip
# [9] = system: spontaneous motor activity in rats; assay: Inhibition of spontaneous motor activity in rats; type: in vivo, Sprague Dawley rats; details: for ED50: Rattus norvegicus, ip, 0.5 h, i.p., 30 minutes
# Protocol: as §1
# 5. Inhibition of Spontaneous Motor Activity in Rats
# The method is the same as described above for mice, except that because of the size of the animals (Sprague Dawley rats; 300 g), the test and control animals are not evaluated simultaneously, but alternatively.
# [10] = system: isolation induced aggressive behavior in mice; assay: Inhibition of isolation induced fighting behavior in mice; type: in vivo, CD #1 mice; details: i.p.
# Protocol: 1. Inhibition of Isolation Induced Fighting Behavior in Mice
# After this period of confinement, the animals usually develop a marked intraspecific aggressive behavior when they are placed in the same cage.
# The compound to be studied is administered i.p. to the selected groups (N=8 pairs/dose×5 doses) and the aggressive behavior is tested again 30 minutes later. […] A one week washout period is allowed between treatments.
# [11] = Acute toxicity test; details: mouse, in vivo, ip
# Protocol: CD #1 mice (20-30 g) are used for this test. The animals are individualy housed in glass beakers for a 2 hour period of acclimatization without food and water.
# [12] = system: exploratory behavior in rats; assay: Inhibition of exploratory behavior in rats (hole poking); type: in vivo, Sprague-Dawley rats; details: rats
# Protocol: 8. Inhibition of Exploratory Behavior in Rats (Hole Poking).
# This test is done with Sprague-Dawley male rats of about 300 g. Activity is evaluated with a […] XYZ activity cage connected to a […] […] DCM-4. A perforated plate (16 holes of 2-5 cm diameter) is placed in the enclosure and on the activity case to register vertical activity. The number of times the rat placed his snout into the holes during a 10 minute period is recorded. The test was started 30 minutes after the interperitoneal injection of the compound to be studied.
# The results which are reported in Table 8 are expressed in terms of the dose required to diminish by 50% the exploratory behavior, with reference to animals injected with the carrier only. Diazepam and buspirone are used as standards.
# [13] = read-out: ED50, clockwise revolutions
# [14] = read-out: ED50, counterclockwise revolutions
# [15] = read-out: ED50, horizontal activity
# [16] = read-out: ED50, number of movements
# [17] = read-out: ED50, number of stereotypic movements
# [18] = read-out: ED50, stereotypy time
structure (smiles),measurement,setting,value
"C#CC(C)N (centres unmarked) [Compound 3, 2-Amino-3-butyne]",inhibition of spontaneous motor activity (in words),[1],more active than buspirone in mice
same,ED50,[1]; [13],3.3 ± 1.6 mg/kg
same,ED50,[1]; [14],2.7 ± 1.9 mg/kg
same,ED50,[1]; [15],4.3 ± 2.2 mg/kg
same,ED50,"[1]; read-out: ED50, movement time",8.1 ± 4.5 mg/kg
same,ED50,[1]; [16],11.8 ± 5.9 mg/kg
same,ED50,[1]; [17],5.5 ± 2.2 mg/kg
same,ED50,[1]; [18],3.8 ± 1.6 mg/kg
same,ED50,"[1]; read-out: ED50, total distance",5.5 ± 3.4 mg/kg
same,ED50,"[1]; read-out: ED50, vertical activity",2.5 ± 1.2 mg/kg
same,ED50,"[1]; read-out: ED50, vertical movements",3.2 ± 1.6 mg/kg
same,ED50,"[1]; read-out: ED50, vertical time",2.6 ± 1.5 mg/kg
same,antiaggressive activity over time (in words),[2],noticeable activity after a few minutes; also recorded: activity is maximal when the plasma concentration is no longer detectable
same,time of maximum antiaggressive activity,[2],60 min
same,inhibition at 10 mg/kg,"[2]; 0.5 h, 30 min, 12 pairs",87.5%
same,inhibition at 10 mg/kg,"[2]; 1 h, 60 min, 9 pairs",100%
same,inhibition at 10 mg/kg,"[2]; 1.5 h, 90 min, 3 pairs",100%
same,inhibition at 10 mg/kg,"[2]; 2 h, 120 min, 3 pairs",100%
same,inhibition at 10 mg/kg,"[2]; 15 min, 15 pairs",75%
same,persistence of inhibitory effect on aggressive behavior (in words),[3],also persists when the compound is administered on a daily basis
same,vapor pressure (in words),[4],high vapor pressure at room temperature
same,elimination / plasma level (in words),[5]; FIG. 1,"elimination of compound N^o 3 is very rapid; also recorded: not detectable, by the method used, 90 minutes after the injection"
same,concentration at […],"[5]; mouse, plasma, ip, 15 min, N = 6, read-out: plasma concentration ± S.E.",4800 ± 400 µM
same,concentration at 0.5 h,"[5]; mouse, plasma, ip, 30 min, N = 6, read-out: plasma concentration ± S.E.",2000 ± 200 µM
same,concentration at 1 h,"[5]; mouse, plasma, ip, 60 min, N = 5, read-out: plasma concentration ± S.E.",900 ± 200 µM
same,concentration at 1.5 h,"[5]; mouse, plasma, ip, 90 min, N = 6, read-out: plasma concentration ± S.E.",< 5 µM
same,concentration at 2 h,"[5]; mouse, plasma, ip, 120 min, N = 6, read-out: plasma concentration ± S.E.",< 5 µM
same,duration of inhibitory effect on aggressive behavior,[6],approximately 4 hours
same,Temp. Difference from Control,"[7]; dose 10, s.c.",-2.6
same,Temp. Difference from Control,"[7]; dose 30, s.c.",-2.5
same,Temp. Difference from Control,"[7]; dose 100, s.c.",-4.1
same,hypothermia (in words),[7]; s.c.,"slight, transient hypothermia comparable to that induced by buspirone"
same,TD50 at 0.5 h,[8],720 mg/kg
same,inhibition of spontaneous motor activity (in words),[9],of comparable activity in rats
same,ED50,[9]; [13],4.1 ± 1.4 mg/kg
same,ED50,[9]; [14],3.7 ± 1.7 mg/kg
same,ED50,[9]; [15],4.2 ± 1.8 mg/kg
same,ED50,"[9]; read-out: ED50, movement time",5.5 ± 2.3 mg/kg
same,ED50,[9]; [16],11.8 ± 7.9 mg/kg
same,ED50,[9]; [17],5.2 ± 2.4 mg/kg
same,ED50,[9]; [18],4.2 ± 1.7 mg/kg
same,ED50,"[9]; read-out: ED50, total distance",4.9 ± 2 mg/kg
same,ED50,"[10]; Mus musculus, ip, 0.5 h, read-out: ED50 (dose that suppressed aggressive behavior in 50% of the animals), 30 minutes after administration, probit analysis",8 mg/kg
same,inhibition of aggressive behavior (in words),[10]; mice,particularly potent inhibitors
same,LD50,[11],1370 mg/kg
same,ED50,"[12]; Rattus norvegicus, ip, 0.5 h, i.p., 30 minutes, read-out: dose required to diminish by 50% the exploratory behavior",4.6 ± 2.6 mg/kg
same,inhibition of exploratory behavior (in words),[12],"more potent, in this respect, than diazepam but they rapidly lose their ability to produce this effect after the first administration"
